Data taken from US8889676B2, “3-ureidoisoquinolin-8-yl derivatives” (Actelion Pharmaceuticals Ltd., priority 2011, dated 2014).
Values after ≈ are worked out from the molar mass of the structure shown.

Test system: S. pneumoniae ATCC 49619
Experiment: Minimal inhibitory concentration (MIC) by broth microdilution (CLSI M7-A7)
Assay type: cell-based, Streptococcus pneumoniae
Settings: cation-adjusted Mueller Hinton Broth supplemented with 3% (v/v) lysed horse blood, microdilution method; for MIC: Streptococcus pneumoniae, ATCC49619
Method in brief: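 Broth microdilution per CLSI M7-A7 in cation-adjusted Mueller-Hinton broth with 3% (v/v) lysed horse blood for S. pneumoniae. MIC in mg/l.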

| SMILES | MIC [µg/mL] | MIC for S. pneumoniae ATCC 49619 [µg/mL] |
| --- | --- | --- |
| CCNC(=O)Nc1cc2c(-c3ccnc(CN4CCOCC4)c3)ccc(CNC(=O)OCCOC)c2cn1 [Example 123, {3-(3-ethyl-ureido)-5-[(2-morpholin-4-ylmethyl)-pyridin-4-yl]-isoquinolin-8-ylmethyl}-carbamic acid 2-methoxy-ethyl ester] |  | 8 |
| CCNC(=O)Nc1cc2c(-c3ccnnc3)ccc(CNC(=O)OC(C)(C)C)c2cn1 [Example 124, [3-(3-ethyl-ureido)-5-pyridazin-4-yl-isoquinolin-8-ylmethyl]-carbamic acid tert-butyl ester] | 0.5 (≈ 1.18 µM) |  |
| C#CCOC(=O)NCc1ccc(-c2ccncc2C)c2cc(NC(=O)NCC)ncc12 [Example 126, [3-(3-ethyl-ureido)-5-(3-methyl-pyridin-4-yl)-isoquinolin-8-ylmethyl]-carbamic acid prop-2-ynyl ester] | 1 (≈ 2.4 µM) |  |
| C#CC(=O)NCc1ccc(-c2ccnnc2)c2cc(NC(=O)NCC)ncc12 [Example 129, propynoic acid [3-(3-ethyl-ureido)-5-pyridazin-4-yl-isoquinolin-8-ylmethyl]-amide] | 0.5 (≈ 1.34 µM) |  |
| CCNC(=O)Nc1cc2c(-c3ccncc3)ccc(CNC(=O)CCC3CC3)c2cn1 [Example 130, 3-cyclopropyl-N-[3-(3-ethyl-ureido)-5-pyridin-4-yl-isoquinolin-8-ylmethyl]-propionamide] | 0.5 (≈ 1.2 µM) |  |
| C#CCOC(=O)NCc1ccc(-c2cccc(CNC(C)=O)c2)c2cc(NC(=O)NCC)ncc12.Cl [Example 132, {5-[3-(acetylamino-methyl)-phenyl]-3-(3-ethyl-ureido)-isoquinolin-8-ylmethyl}-carbamic acid prop-2-ynyl ester hydrochloride] | 4 |  |
| C#CCOC(=O)NCc1ccc(-c2ccc(C(=O)O)cc2)c2cc(NC(=O)NCC)ncc12.Cl [Example 137, 4-[3-(3-ethyl-ureido)-8-(prop-2-ynyloxycarbonylamino-methyl)-isoquinolin-5-yl]-benzoic acid hydrochloride] | 0.25 |  |
| C#CCOC(=O)NCc1ccc(-c2ccc(O)cc2)c2cc(NC(=O)NCC)ncc12.Cl [Example 138, [3-(3-ethyl-ureido)-5-(4-hydroxy-phenyl)-isoquinolin-8-ylmethyl]-carbamic acid prop-2-ynyl ester hydrochloride] | 0.5 |  |
| C#CCOC(=O)NCc1ccc(-c2ccccc2O)c2cc(NC(=O)NCC)ncc12.Cl [Example 139, [3-(3-ethyl-ureido)-5-(2-hydroxy-phenyl)-isoquinolin-8-ylmethyl]-carbamic acid prop-2-ynyl ester hydrochloride] | 1 |  |
| C#CCOC(=O)NCc1ccc(-c2cncnc2)c2cc(NC(=O)NCC)ncc12.Cl [Example 140, [3-(3-ethyl-ureido)-5-pyrimidin-5-yl-isoquinolin-8-ylmethyl]-carbamic acid prop-2-ynyl ester hydrochloride] | 1 |  |
| CCNC(=O)Nc1cc2c(-c3ccncc3)ccc(CNC(=O)CCCN3CCOCC3)c2cn1 [Example 147, N-[3-(3-ethyl-ureido)-5-pyridin-4-yl-isoquinolin-8-ylmethyl]-4-morpholin-4-yl-butyramide] | 4 (≈ 8.39 µM) |  |
| CCNC(=O)Nc1cc2c(Cl)ccc(CNC(=O)OCCCN3CCOCC3)c2cn1 [Example 148, [5-chloro-3-(3-ethyl-ureido)-isoquinolin-8-ylmethyl]-carbamic acid 3-morpholin-4-yl-propyl ester] | 4 (≈ 8.89 µM) |  |
| CCNC(=O)Nc1cc2c(F)ccc(CNC(=O)OCCCN3CCOCC3)c2cn1 [Example 149, [3-(3-ethyl-ureido)-5-fluoro-isoquinolin-8-ylmethyl]-carbamic acid 3-morpholin-4-yl-propyl ester] | 4 (≈ 9.23 µM) |  |
| CCNC(=O)Nc1cc2c(-c3ccncc3)ccc(CNC(=O)OCCc3cnn[nH]3)c2cn1 [Example 152, [3-(3-ethyl-ureido)-5-pyridin-4-yl-isoquinolin-8-ylmethyl]-carbamic acid 2-(3H-[1,2,3]triazol-4-yl)-ethyl ester] | 1 (≈ 2.17 µM) |  |
| C#CC(=O)NCc1ccc(-c2ccnc(C)c2)c2cc(NC(=O)NCC)ncc12 [Example 155, propynoic acid [3-(3-ethyl-ureido)-5-(2-methyl-pyridin-4-yl)-isoquinolin-8-ylmethyl]-amide] | 0.5 (≈ 1.29 µM) |  |
| C#CCOC(=O)NCc1ccc(-c2ccnc(C)c2)c2cc(NC(=O)NCC)ncc12 [Example 158, [3-(3-ethyl-ureido)-5-(2-methyl-pyridin-4-yl)-isoquinolin-8-ylmethyl]-carbamic acid prop-2-ynyl ester] | 0.5 (≈ 1.2 µM) |  |

More lines, in order of falling MIC, values ahead:

| MIC [µg/mL] | SMILES | MIC for S. pneumoniae ATCC 49619 [µg/mL] |
| --- | --- | --- |
| 8 (≈ 19.8 µM) | C#CCOC(=O)NCc1ccc(-c2ccnnc2)c2cc(NC(=O)NCC)ncc12 [Example 127, [3-(3-ethyl-ureido)-5-pyridazin-4-yl-isoquinolin-8-ylmethyl]-carbamic acid prop-2-ynyl ester] |  |
| 4 | C#CCOC(=O)NCc1ccc(-c2cccc(CC(=O)O)c2)c2cc(NC(=O)NCC)ncc12.Cl [Example 135, {3-[3-(3-ethyl-ureido)-8-(prop-2-ynyloxycarbonylamino-methyl)-isoquinolin-5-yl]-phenyl}-acetic acid hydrochloride] |  |
| 2 | C#CCOC(=O)NCc1ccc(-c2cccc(C(N)=O)c2)c2cc(NC(=O)NCC)ncc12.Cl [Example 136, [5-(3-carbamoyl-phenyl)-3-(3-ethyl-ureido)-isoquinolin-8-ylmethyl]-carbamic acid prop-2-ynyl ester hydrochloride] |  |
| 2 (≈ 5.49 µM) | CCNC(=O)Nc1cc2c(F)ccc(CNC(=O)OCCOC)c2cn1 [Example 151, [3-(3-ethyl-ureido)-5-fluoro-isoquinolin-8-ylmethyl]-carbamic acid 2-methoxy-ethyl ester] |  |
| 2 (≈ 4.77 µM) | CCNC(=O)Nc1cc2c(-c3ccnc(C4CC4)c3)ccc(CNC(=O)OC)c2cn1 [Example 160, [5-(2-cyclopropyl-pyridin-4-yl)-3-(3-ethyl-ureido)-isoquinolin-8-ylmethyl]-carbamic acid methyl ester] |  |
| 1 | C#CCOC(=O)NCc1ccc(-c2cccnc2)c2cc(NC(=O)NCC)ncc12.Cl [Example 125, [3-(3-ethyl-ureido)-5-pyridin-3-yl-isoquinolin-8-ylmethyl]-carbamic acid prop-2-ynyl ester hydrochloride] |  |
| 1 (≈ 2.33 µM) | C#CCOC(=O)NCc1ccc(-c2ccnc(C#N)c2)c2cc(NC(=O)NCC)ncc12 [Example 128, [5-(2-cyano-pyridin-4-yl)-3-(3-ethyl-ureido)-isoquinolin-8-ylmethyl]-carbamic acid prop-2-ynyl ester] |  |
| 1 | C#CCOC(=O)NCc1ccc(-c2ccc(CO)nc2)c2cc(NC(=O)NCC)ncc12.Cl [Example 142, [3-(3-ethyl-ureido)-5-(6-hydroxymethyl-pyridin-3-yl)-isoquinolin-8-ylmethyl]-carbamic acid prop-2-ynyl ester hydrochloride] |  |
| 1 (≈ 2.9 µM) | C#CCOC(=O)NCc1ccc(F)c2cc(NC(=O)NCC)ncc12 [Example 150, [3-(3-ethyl-ureido)-5-fluoro-isoquinolin-8-ylmethyl]-carbamic acid prop-2-ynyl ester] |  |
| 1 (≈ 2.65 µM) | CCNC(=O)Nc1cc2c(-c3ccnc(C)c3)ccc(CNC(C)=O)c2cn1 [Example 153, N-[3-(3-ethyl-ureido)-5-(2-methyl-pyridin-4-yl)-isoquinolin-8-ylmethyl]-acetamide] |  |
| 1 (≈ 2.37 µM) | CCNC(=O)Nc1cc2c(-c3ccnc(C)c3)ccc(CNC(=O)CCOC)c2cn1 [Example 157, N-[3-(3-ethyl-ureido)-5-(2-methyl-pyridin-4-yl)-isoquinolin-8-ylmethyl]-3-methoxy-propionamide] |  |
| 1 (≈ 2.97 µM) | CCNC(=O)Nc1cc2c(Cl)ccc(CNC(=O)OC)c2cn1 [Example 159, [5-chloro-3-(3-ethyl-ureido)-isoquinolin-8-ylmethyl]-carbamic acid methyl ester] |  |
| 0.5 | C#CCOC(=O)NCc1ccc(-c2ccc(N)nc2)c2cc(NC(=O)NCC)ncc12.Cl [Example 131, [5-(6-amino-pyridin-3-yl)-3-(3-ethyl-ureido)-isoquinolin-8-ylmethyl]-carbamic acid prop-2-ynyl ester hydrochloride] |  |
| 0.5 | C#CCOC(=O)NCc1ccc(-c2cccc(O)c2)c2cc(NC(=O)NCC)ncc12.Cl [Example 133, [3-(3-ethyl-ureido)-5-(3-hydroxy-phenyl)-isoquinolin-8-ylmethyl]-carbamic acid prop-2-ynyl ester hydrochloride] |  |
| 0.5 | C#CCOC(=O)NCc1ccc(-c2ccc(CO)cc2)c2cc(NC(=O)NCC)ncc12.Cl [Example 143, [3-(3-ethyl-ureido)-5-(4-hydroxymethyl-phenyl)-isoquinolin-8-ylmethyl]-carbamic acid prop-2-ynyl ester hydrochloride] |  |
| 0.5 | C#CCOC(=O)NCc1ccc(-c2ccnc(N)c2)c2cc(NC(=O)NCC)ncc12.Cl [Example 144, [5-(2-amino-pyridin-4-yl)-3-(3-ethyl-ureido)-isoquinolin-8-ylmethyl]-carbamic acid prop-2-ynyl ester hydrochloride] |  |
| 0.5 (≈ 1.24 µM) | CCNC(=O)Nc1cc2c(-c3ccnc(C)c3)ccc(CNC(=O)C3CC3)c2cn1 [Example 154, cyclopropanecarboxylic acid [3-(3-ethyl-ureido)-5-(2-methyl-pyridin-4-yl)-isoquinolin-8-ylmethyl]-amide] |  |
| 0.5 (≈ 1.16 µM) | CCNC(=O)Nc1cc2c(-c3ccnc(C)c3)ccc(CNC(=O)c3ncc[nH]3)c2cn1 [Example 156, 1H-imidazole-2-carboxylic acid [3-(3-ethyl-ureido)-5-(2-methyl-pyridin-4-yl)-isoquinolin-8-ylmethyl]-amide] |  |
| 0.5 (≈ 1.26 µM) | CCNC(=O)Nc1cc2c(-c3ccnc(F)c3)ccc(CNC(=O)OC)c2cn1 [Example 161, [3-(3-ethyl-ureido)-5-(2-fluoro-pyridin-4-yl)-isoquinolin-8-ylmethyl]-carbamic acid methyl ester] |  |
| 0.25 | C#CCOC(=O)NCc1ccc(-c2ccc(C(N)=O)cc2)c2cc(NC(=O)NCC)ncc12.Cl [Example 141, [5-(4-carbamoyl-phenyl)-3-(3-ethyl-ureido)-isoquinolin-8-ylmethyl]-carbamic acid prop-2-ynyl ester hydrochloride] |  |
